Experimental data: PubChem BioAssay AID330 (DTP/NCI, 2004)
“And” between values parts separate entries of the source, which are not always exact repeats. Equal entries are not always repeated. Toxic doses and inconclusive results are not listed. How the source made its calls: active means survival T/C of 150% or more; inactive means T/C below 125% in these data.

Tested on: P388 leukemia ip, CD2F1 mice, survival T/C
Test: NCI In Vivo Anticancer Drug Screen. Data for tumor model P388 Leukemia (intraperitoneal) in CD2F1 (CDF1) mice
Conditions: endpoint: median survival time, higher = longer survival
Outline: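 Mice carrying the transplanted tumor received test compound or vehicle. Survival was recorded in each group, and the value is the treated-group measurement divided by that of the vehicle-treated control group.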

[1] = dose: 100.0 mg/kg/injection, schedule: Q04DX003 (ip), vehicle: Klucel (hydroxypropylcellulose) (HPC)
[2] = dose: 200.0 mg/kg/injection, schedule: Q04DX003 (ip), vehicle: Klucel (hydroxypropylcellulose) (HPC)
[3] = dose: 400.0 mg/kg/injection, schedule: Q04DX003 (ip), vehicle: Klucel (hydroxypropylcellulose) (HPC)
[4] = dose: 50.0 mg/kg/injection, schedule: Q01DX005 (ip), vehicle: saline with Tween-80
[5] = dose: 100.0 mg/kg/injection, schedule: Q01DX005 (ip), vehicle: saline with Tween-80
[6] = dose: 200.0 mg/kg/injection, schedule: Q01DX005 (ip), vehicle: saline with Tween-80
[7] = dose: 50.0 mg/kg/injection, schedule: Q01DX009 (ip), vehicle: saline with Tween-80
[8] = dose: 100.0 mg/kg/injection, schedule: Q01DX009 (ip), vehicle: saline with Tween-80
[9] = dose: 200.0 mg/kg/injection, schedule: Q01DX009 (ip), vehicle: saline with Tween-80
[10] = dose: 1.56 mg/kg/injection, schedule: Q01DX005 (ip), vehicle: saline with Tween-80
[11] = dose: 3.13 mg/kg/injection, schedule: Q01DX005 (ip), vehicle: saline with Tween-80
[12] = dose: 6.25 mg/kg/injection, schedule: Q01DX005 (ip), vehicle: saline with Tween-80

Measured: T/C

CC1=C(CO)C(=O)OC(C(C)C2CCC3C4CC5OC56C(O)C(N5CC5)=CC(=O)C6(C)C4CCC23C)C1 (stereo not given)
inactive: dose: 5.0 mg/kg/injection, schedule: Q01DX005 (ip), vehicle: Klucel (hydroxypropylcellulose) (HPC) 110 % of control | dose: 10.0 mg/kg/injection, schedule: Q01DX005 (ip), vehicle: Klucel (hydroxypropylcellulose) (HPC) 120 % of control and 91 % of control and 97 % of control | dose: 20.0 mg/kg/injection, schedule: Q01DX005 (ip), vehicle: Klucel (hydroxypropylcellulose) (HPC) 103 % of control and 104 % of control and 123 % of control | dose: 40.0 mg/kg/injection, schedule: Q01DX005 (ip), vehicle: Klucel (hydroxypropylcellulose) (HPC) 103 % of control and 106 % of control and 123 % of control | dose: 80.0 mg/kg/injection, schedule: Q01DX005 (ip), vehicle: Klucel (hydroxypropylcellulose) (HPC) 108 % of control and 109 % of control | dose: 160.0 mg/kg/injection, schedule: Q01DX005 (ip), vehicle: Klucel (hydroxypropylcellulose) (HPC) 105 % of control

COc1ccc(/C=C/c2nc(Nc3ccc(OC)cc3)c3ccccc3n2)cc1
inactive: dose: 50.0 mg/kg/injection, schedule: Q01DX009 (ip), vehicle: acetone 98 % of control | dose: 100.0 mg/kg/injection, schedule: Q01DX009 (ip), vehicle: acetone 91 % of control | dose: 200.0 mg/kg/injection, schedule: Q01DX009 (ip), vehicle: acetone 99 % of control

CCOC(=O)n1c(=O)oc2c(Br)cc(Br)cc21
inactive: dose: 50.0 mg/kg/injection, schedule: Q04DX002 (ip), vehicle: Klucel (hydroxypropylcellulose) (HPC) 96 % of control | dose: 100.0 mg/kg/injection, schedule: Q04DX002 (ip), vehicle: Klucel (hydroxypropylcellulose) (HPC) 99 % of control | dose: 200.0 mg/kg/injection, schedule: Q04DX002 (ip), vehicle: Klucel (hydroxypropylcellulose) (HPC) 93 % of control

CCOC(=O)/C(C(C)=O)=C1/c2c(ccc(OC)c2OC)C=C2c3cc4c(cc3CCN21)OCO4
inactive: dose: 0.63 mg/kg/injection, schedule: Q01DX009 (ip), vehicle: water 105 % of control | dose: 1.25 mg/kg/injection, schedule: Q01DX009 (ip), vehicle: water 108 % of control | dose: 2.5 mg/kg/injection, schedule: Q01DX009 (ip), vehicle: water 101 % of control | dose: 5.0 mg/kg/injection, schedule: Q01DX009 (ip), vehicle: water 124 % of control | dose: 10.0 mg/kg/injection, schedule: Q01DX009 (ip), vehicle: water 101 % of control | dose: 20.0 mg/kg/injection, schedule: Q01DX009 (ip), vehicle: water 107 % of control

CC1(C)CN(c2ccccc2)N(CN2CCOCC2)C1=O
inactive: dose: 3.12 mg/kg/injection, schedule: Q01DX009 (ip), vehicle: Klucel (hydroxypropylcellulose) (HPC) 103 % of control | dose: 6.25 mg/kg/injection, schedule: Q01DX009 (ip), vehicle: Klucel (hydroxypropylcellulose) (HPC) 97 % of control | dose: 12.5 mg/kg/injection, schedule: Q01DX009 (ip), vehicle: Klucel (hydroxypropylcellulose) (HPC) 104 % of control

O=C(Nc1cccc(Cl)c1)OCC#CCCl
inactive: dose: 50.0 mg/kg/injection, schedule: Q01DX005 (ip), vehicle: saline + Tween-80 + alcohol 100 % of control | dose: 100.0 mg/kg/injection, schedule: Q01DX005 (ip), vehicle: saline + Tween-80 + alcohol 107 % of control | dose: 200.0 mg/kg/injection, schedule: Q01DX005 (ip), vehicle: saline + Tween-80 + alcohol 108 % of control

O=c1[nH]c2c(c(O)c1-c1ccccc1)CCCN2
inactive: [1] 102 % of control | [2] 100 % of control | [3] 110 % of control

Nc1nccc2[nH]ccc12
inactive: dose: 12.5 mg/kg/injection, schedule: Q01DX001 (ip), vehicle: saline 103 % of control | dose: 25.0 mg/kg/injection, schedule: Q01DX001 (ip), vehicle: saline 102 % of control | dose: 50.0 mg/kg/injection, schedule: Q01DX001 (ip), vehicle: saline 112 % of control

CN1CCC2CC1c1ccn(C)c1C2=O (stereo not given)
inactive: dose: 7.5 mg/kg/injection, schedule: Q01DX005 (ip), vehicle: saline 93 % of control | dose: 15.0 mg/kg/injection, schedule: Q01DX005 (ip), vehicle: saline 96 % of control | dose: 30.0 mg/kg/injection, schedule: Q01DX005 (ip), vehicle: saline 106 % of control

O=C1C(=O)N(c2ccccc2)N=C1N=Nc1ccccc1
inactive: [4] 110 % of control and 115 % of control | [5] 108 % of control and 114 % of control | [6] 117 % of control and 120 % of control | dose: 400.0 mg/kg/injection, schedule: Q01DX005 (ip), vehicle: saline with Tween-80 109 % of control

COC1/C=C/OC2(C)Oc3c(C)c(O)c4c(O)c(c(/C=N/N5CCCN(C)CC5)c(O)c4c3C2=O)NC(=O)/C(C)=C\C=C\C(C)C(O)C(C)C(O)C(C)C(OC(C)=O)C1C (stereo not given)
inactive: [7] 104 % of control | [8] 100 % of control | [9] 102 % of control

CCCCC(CC)C(=O)OC(C)CN(CC(C)OC(=O)C(CC)CCCC)C(=O)C(C)OC(=O)C(CC)CCCC (stereo not given)
inactive: [4] 103 % of control | [5] 96 % of control | [6] 103 % of control

O=C(Oc1c(F)c(F)c(F)c(F)c1F)N(CCCl)CCCl
inactive: dose: 100.0 mg/kg/injection, schedule: Q01DX001 (ip), vehicle: Klucel (hydroxypropylcellulose) (HPC) 101 % of control | dose: 200.0 mg/kg/injection, schedule: Q01DX001 (ip), vehicle: Klucel (hydroxypropylcellulose) (HPC) 104 % of control | dose: 400.0 mg/kg/injection, schedule: Q01DX001 (ip), vehicle: Klucel (hydroxypropylcellulose) (HPC) 94 % of control

CCOc1c(N=Nc2cccc(Cl)c2)c(-c2ccccc2)nn1C(=S)S
inactive: dose: 0.78 mg/kg/injection, schedule: Q01DX005 (ip), vehicle: saline with Tween-80 100 % of control | [10] 99 % of control | [11] 100 % of control | [12] 99 % of control and 100 % of control

CC(=O)c1c(C)[nH]c2c1[nH]c1ccccc12
inactive: dose: 60.0 mg/kg/injection, schedule: Q01DX005 (ip), vehicle: Klucel (hydroxypropylcellulose) (HPC) 93 % of control | dose: 120.0 mg/kg/injection, schedule: Q01DX005 (ip), vehicle: Klucel (hydroxypropylcellulose) (HPC) 101 % of control

CCN(CC)CCCC(C)n1c2nc(=O)[nH]c(=O)c-2nc2ccc(Cl)cc21 (stereo not given)
inactive: dose: 6.25 mg/kg/injection, schedule: Q01DX005 (ip), vehicle: saline 100 % of control | dose: 12.5 mg/kg/injection, schedule: Q01DX005 (ip), vehicle: saline 107 % of control | dose: 25.0 mg/kg/injection, schedule: Q01DX005 (ip), vehicle: saline 112 % of control

Cc1ccc(-c2sc3ccccc3c(=O)c2CCl)cc1CO
inactive: dose: 60.0 mg/kg/injection, schedule: Q01DX005 (ip), vehicle: saline with Tween-80 100 % of control | dose: 120.0 mg/kg/injection, schedule: Q01DX005 (ip), vehicle: saline with Tween-80 95 % of control | dose: 240.0 mg/kg/injection, schedule: Q01DX005 (ip), vehicle: saline with Tween-80 90 % of control

CC(C)CC(NC(=O)OCc1ccccc1)C(=O)NC(Cc1c[nH]c2ccccc12)C(=O)O (stereo not given)
inactive: [4] 100 % of control | [5] 103 % of control | [6] 102 % of control

CCC(CC)(C(=O)Nc1ccc2nc(C)cc(N)c2c1)C(=O)Nc1ccc2nc(C)cc(N)c2c1
inactive: dose: 12.5 mg/kg/injection, schedule: Q01DX005 (ip), vehicle: saline with Tween-80 102 % of control | dose: 25.0 mg/kg/injection, schedule: Q01DX005 (ip), vehicle: saline with Tween-80 90 % of control | [4] 87 % of control and 93 % of control | [6] 93 % of control

S=c1[nH]nc(NC2CCCCC2)s1
inactive: [7] 90 % of control | [8] 90 % of control | dose: 100.0 mg/kg/injection, schedule: Q04DX003 (ip), vehicle: saline with Tween-80 91 % of control | [9] 90 % of control | dose: 200.0 mg/kg/injection, schedule: Q04DX003 (ip), vehicle: saline with Tween-80 91 % of control

c1ccc2c(c1)C1c3cccc[n+]3C2C2C1CC1C3c4ccccc4C(C12)[n+]1ccccc13 (stereo not given)
inactive: [10] 102 % of control | [11] 102 % of control | [12] 104 % of control and 94 % of control

CCOC(=O)/C=C(/CC(=O)OCC)OCC
inactive: dose: 50.0 mg/kg/injection, schedule: Q01DX009 (ip), vehicle: saline 100 % of control | dose: 100.0 mg/kg/injection, schedule: Q01DX009 (ip), vehicle: saline 89 % of control | dose: 200.0 mg/kg/injection, schedule: Q01DX009 (ip), vehicle: saline 90 % of control | dose: 400.0 mg/kg/injection, schedule: Q01DX009 (ip), vehicle: saline 101 % of control

O=C(CC(O)(c1ccccc1)c1ccccc1)SCc1ccccc1
inactive: [1] 102 % of control | [2] 98 % of control | [3] 110 % of control
